Read-outs that look alike come from different tables or passages of the source.
Assays:
PD-L1 = PD-L1 (Homo sapiens (Human), UniProt Q9NZQ7); experiment: PD-L1/PD-L1 dimerization biochemical protein-protein interaction assay (ALPHA); assay type: binding; conditions: read-out: AC50 PDL1 Dimer 1 nM
PD-1/PD-L1 = PD-1/PD-L1 (Homo sapiens (Human), UniProt Q9NZQ7); experiment: PD-1/PD-L1 biochemical protein-protein interaction assay (ALPHA); assay type: binding; conditions: 0.3 nM His tagged PD-L1, 2.5 nM biotinylated Fc-PD-1, readings of 0.064 nM are equal to or less than 0.064 nM, read-out: IC50 PD-L1-PD1
Protocol: Compounds were tested in biochemical protein-protein interaction assays to determine if they can specifically block the interaction between the extracellular domains of PD-1/PD-L1 or CTLA/CD80. Binding of the protein pairs is measured using a bead based Amplified Luminescent Proximity Homogeneous Assay (ALPHA) platform. […] Final protein concentration in the assays were 0.3 nM (His tagged PD-L1), 2.5 nM (biotinylated Fc-PD-1), 1 nM (His tagged CTLA4) and 1 nM (biotinylated CD80).

[1] = 0.5 nM His tagged PD-L1 and 0.5 nM FLAG tagged PD-L1, Table 4A
[2] = 0.5 nM His tagged PD-L1 and 0.5 nM FLAG tagged PD-L1, Table 4B

Chain of PD-1/PD-L1 (Q9NZQ7 19-238): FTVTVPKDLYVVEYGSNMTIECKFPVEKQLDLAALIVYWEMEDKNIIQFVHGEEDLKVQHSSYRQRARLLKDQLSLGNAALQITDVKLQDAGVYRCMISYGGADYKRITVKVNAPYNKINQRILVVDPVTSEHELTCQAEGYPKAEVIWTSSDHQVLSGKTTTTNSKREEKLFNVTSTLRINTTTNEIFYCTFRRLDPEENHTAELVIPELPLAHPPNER
Chain of PD-L1 (Q9NZQ7 19-238): as above
Chain of PD-L1 (Q9NZQ7 19-238): as above

| Structure (SMILES) | AC50 (PD-L1; [1]) [nM] | IC50 (PD-1/PD-L1) [nM] | AC50 (PD-L1; [2]) [nM] |
| --- | --- | --- | --- |
| COc1nc(-c2cccc(-c3cccc4c3CC[C@@H]4Nc3nc(OC)c(CN4CC5(C(=O)O)CCC4CC5)cc3C(F)(F)F)c2Cl)ccc1CNC[C@@H]1CCC(=O)N1 [A-1] | 13.2 | ≤ 0.064 |  |
| COc1nc(-c2cccc(-c3cccc4c3CC[C@@H]4Nc3nc(OC)c(CN4CC[C@@](C)(C(=O)O)C4)cc3C(F)(F)F)c2Cl)ccc1CNC[C@@H]1CCC(=O)N1 [A-2, (R)-1-((6-(((S)-4-(2-chloro-3-(6-methoxy-5-(((((S)-5-oxopyrrolidin-2-yl)methyl)amino)methyl)pyridin-2-yl)phenyl)-2,3-dihydro-1H-inden-1-yl)amino)-2-methoxy-5-(trifluoromethyl)pyridin-3-yl)methyl)-3-methylpyrrolidine-3-carboxylic acid] | 13.5 | ≤ 0.064 |  |
| COc1nc(-c2cccc(-c3cccc4c3CC[C@@H]4Nc3nc(OC)c(CN4CC[C@H](C(=O)O)C4)cc3C(F)(F)F)c2Cl)ccc1CNC[C@@H]1CCC(=O)N1 [A-3] | 13.9 | ≤ 0.064 |  |
| COc1nc(-c2cccc(-c3cccc4c3CC[C@@H]4Nc3nc(OC)c(CN4CC[C@@H](C(=O)O)C4)cc3C(F)(F)F)c2Cl)ccc1CNC[C@@H]1CCC(=O)N1 [A-4] | 14.3 | ≤ 0.064 |  |
| COc1nc(-c2cccc(-c3cccc4c3CC[C@@H]4Nc3nc(OC)c(CN4CC5(C(=O)O)CCC4CC5)cc3Cl)c2Cl)ccc1CNC[C@@H]1CCC(=O)N1 [A-5] | 113 | ≤ 0.064 |  |
| COc1nc(-c2cccc(-c3cccc4c3CC[C@@H]4Nc3nc(OC)c(CN4CC(C)(O)C4)cc3Cl)c2Cl)ccc1CNC[C@@H]1CCC(=O)N1 [A-6] | 188 | 0.67 |  |
| COc1nc(-c2cccc(-c3cccc4c3CC[C@@H]4Nc3nc(OC)c(CN4CC5(CCC(=O)N5)C4)cc3Cl)c2Cl)ccc1CNC[C@@H]1CCC(=O)N1 [A-7] | 180 | 1.18 |  |
| COc1nc(-c2cccc(-c3cccc4c3CC[C@@H]4Nc3nc(OC)c(CN4CC[C@@H](C(=O)O)C4)cc3Cl)c2Cl)ccc1CNC[C@@H]1CCC(=O)N1 [A-8] | 79.7 | ≤ 0.064 |  |
| COc1nc(-c2cccc(-c3cccc4c3CC[C@@H]4Nc3nc(OC)c(CNC[C@@H]4CCC(=O)N4)cc3Cl)c2Cl)ccc1CNC[C@@H]1CCC(=O)N1 [A-9] | 150 | 1.66 |  |
| COc1cc(N[C@H]2CCc3c(-c4cccc(-c5ccc(CNC[C@@H]6CCC(=O)N6)c(OC)n5)c4Cl)cccc32)c(C(F)(F)F)cc1CN1CC[C@H](C(=O)O)C1 [A-10] | 16.7 | ≤ 0.064 |  |
| COc1cc(N[C@H]2CCc3c(-c4cccc(-c5ccc(CNC[C@@H]6CCC(=O)N6)c(OC)n5)c4Cl)cccc32)c(C(F)(F)F)cc1CN1CC[C@@H](C(=O)O)C1 [A-11] | 34.8 | ≤ 0.064 |  |
| COc1cc(N[C@H]2CCc3c(-c4cccc(-c5ccc(CNC[C@@H]6CCC(=O)N6)c(OC)n5)c4Cl)cccc32)c(C(F)(F)F)cc1CN1CC2(C(=O)O)CCC1CC2 [A-12] | 26.4 | ≤ 0.064 |  |
| COc1cc(N[C@H]2CCc3c(-c4cccc(-c5ccc(CNC[C@@H]6CCC(=O)N6)c(OC)n5)c4Cl)cccc32)c(Cl)cc1CN1CC2(C(=O)O)CCC1CC2 [A-13] | 48.8 | 0.065 |  |
| COc1cc(N[C@H]2CCc3c(-c4cccc(-c5ccc(CNC[C@@H]6CCC(=O)N6)c(OC)n5)c4Cl)cccc32)c(Cl)cc1CN1CC[C@@](C)(C(=O)O)C1 [A-14, (R)-1-(5-chloro-4-(((S)-4-(2-chloro-3-(6-methoxy-5-(((((S)-5-oxopyrrolidin-2-yl)methyl)amino)methyl)pyridin-2-yl)phenyl)-2,3-dihydro-1H-inden-1-yl)amino)-2-methoxybenzyl)-3-methylpyrrolidine-3-carboxylic acid] | 30.4 | ≤ 0.064 |  |
| COc1cc(N[C@H]2CCc3c(-c4cccc(-c5ccc(CNC[C@@H]6CCC(=O)N6)c(OC)n5)c4Cl)cccc32)c(Cl)cc1CN1CC[C@H](C(=O)O)C1 [A-15] | 51.6 | ≤ 0.064 |  |
| COc1nc(-c2cccc(-c3cccc4c3CC[C@@H]4Nc3nc(OC)c(CNC4(C(=O)O)CC4)cc3C(F)(F)F)c2Cl)ccc1CN1CC2(CCC(=O)N2)C1 [A-23] |  | ≤ 0.064 |  |
| COc1nc(-c2cccc(-c3cccc4c3CC[C@@H]4Oc3nc(OC)c(CNC4(C(=O)O)CCOCC4)cc3Cl)c2Cl)ccc1CNC[C@@H]1CCC(=O)N1 [B-15] |  |  | 9.55 |
| COc1nc(-c2cccc(-c3cccc4c3CC[C@@H]4Oc3nc(OC)c(CN4CCC[C@@H]4C(=O)O)cc3Cl)c2Cl)ccc1CNC[C@@H]1CCC(=O)N1 [B-16] |  |  | 24.5 |
| COc1nc(-c2cccc(-c3cccc4c3CC[C@@H]4Oc3nc(OC)c(CN4CCC[C@@]4(C)C(=O)O)cc3Cl)c2Cl)ccc1CNC[C@@H]1CCC(=O)N1 [B-17] |  |  | 4.29 |
| COc1nc(-c2cccc(-c3cccc4c3CC[C@@H]4Oc3nc(OC)c(CN4CCC[C@H]4C(=O)O)cc3Cl)c2Cl)ccc1CNC[C@@H]1CCC(=O)N1 [B-18] |  |  | 17.5 |
| COc1nc(-c2cccc(-c3cccc4c3CC[C@@H]4Oc3nc(OCc4cncc(Cl)c4)c(CNC4(C(=O)O)CC4)cc3C(F)(F)F)c2Cl)ccc1CNC[C@@H]1CCC(=O)N1 [B-29] |  |  | 4.08 |
| COc1nc(-c2cccc(-c3cccc4c3CC[C@@H]4Oc3nc(OCc4cncc(F)c4)c(CN4CC5(C(=O)O)CCC4CC5)cc3Cl)c2Cl)ccc1CNC[C@@H]1CCC(=O)N1 [B-33] |  |  | 14.7 |

| Structure (SMILES) | AC50 (PD-L1; [1]) [nM] | IC50 (PD-1/PD-L1) [nM] | AC50 (PD-L1; [2]) [nM] |
| --- | --- | --- | --- |
| COc1nc(-c2cccc(-c3cccc4c3CC[C@@H]4Oc3nc(OC)c(CNC4(C(=O)O)CCC4)cc3Cl)c2Cl)ccc1CNC[C@@H]1CCC(=O)N1 [B-35] |  |  | 9.06 |
| COc1nc(-c2cccc(-c3cccc4c3CC[C@@H]4Oc3nc(OC(F)F)c(CN4CC5(C(=O)O)CCC4CC5)cc3Cl)c2Cl)ccc1CNC[C@@H]1CCC(=O)N1 [B-40] |  |  | 48.6 |
| CCOc1nc(O[C@H]2CCc3c(-c4cccc(-c5ccc(CNC[C@@H]6CCC(=O)N6)c(OC)n5)c4Cl)cccc32)c(Cl)cc1CN1CC2(C(=O)O)CCC1CC2 [B-46] |  |  | 14.7 |
| CCOc1nc(O[C@H]2CCc3c(-c4cccc(-c5ccc(CNC[C@@H]6CCC(=O)N6)c(OC)n5)c4Cl)cccc32)c(Cl)cc1CN1CC[C@H](C(=O)O)C1 [B-47] |  |  | 27.4 |
| COc1nc(-c2cccc(-c3cccc4c3CC[C@@H]4Oc3nc(OC)c(CN[C@@H]4CCC[C@@H]4C(=O)O)cc3Cl)c2Cl)ccc1CNC[C@@H]1CCC(=O)N1 [B-53] |  |  | 31.1 |
| COc1nc(-c2cccc(-c3cccc4c3CC[C@@H]4Oc3nc(OC)c(CNC4(C(=O)O)CC4)cc3Cl)c2Cl)ccc1CNC[C@@H]1CCC(=O)N1 [B-54] |  |  | 10.2 |
| COc1nc(-c2cccc(-c3cccc4c3CC[C@@H]4Oc3nc(OCC#N)c(CN4CC5(C(=O)O)CCC4CC5)cc3Cl)c2Cl)ccc1CNC[C@@H]1CCC(=O)N1 [B-55] |  |  | 10.7 |
| COc1nc(-c2cccc(-c3cccc4c3CC[C@@H]4Oc3nc(OCc4cncc(C#N)c4)c(CN4CC[C@H](C(=O)O)C4)cc3Cl)c2Cl)ccc1CNC[C@@H]1CCC(=O)N1 [B-65] |  |  | 15.3 |
| COc1nc(-c2cccc(-c3cccc4c3CC[C@@H]4Oc3nc(OCc4cncc(C#N)c4)c(CN4CC[C@@H](C(=O)O)C4)cc3Cl)c2Cl)ccc1CNC[C@@H]1CCC(=O)N1 [B-66] |  |  | 38.1 |
| COc1nc(-c2cccc(-c3cccc4c3CC[C@@H]4Oc3nc(OCc4cncc(C#N)c4)c(CN4CC5(C(=O)O)CCC4CC5)cc3Cl)c2Cl)ccc1CNC[C@@H]1CCC(=O)N1 [B-67] |  |  | 30.3 |
| COc1nc(-c2cccc(-c3cccc4c3CC[C@@H]4Oc3nc(OC)c(CN4CC(C(=O)NS(C)(=O)=O)C4)cc3Cl)c2Cl)ccc1CN1CC(C)(O)C1 [B-75] |  |  | 93.8 |
| COc1nc(-c2cccc(-c3cccc4c3CC[C@@H]4Oc3nc(OC)c(CN4CC[C@@H](C(=O)NS(C)(=O)=O)C4)cc3Cl)c2Cl)ccc1CN1CC(C)(O)C1 [B-76] |  |  | 83.2 |
| COc1nc(O[C@H]2CCc3c(-c4cccc(-c5cnc([C@@H](C)NC[C@H]6CCC(=O)N6)c(OC)n5)c4Cl)cccc32)c(Cl)cc1CN1CC[C@@H](C(=O)O)C1 [B-79] |  |  | 70.8 |
| COc1nc(-c2cccc(-c3cccc4c3CC[C@@H]4Oc3nc(OC)c(CN4CC[C@H](C(=O)NS(C)(=O)=O)C4)cc3Cl)c2Cl)ccc1CNC[C@@H]1CCC(=O)N1 [B-84] |  |  | 37.3 |
| COc1nc(-c2cccc(-c3cccc4c3CC[C@@H]4Oc3nc(OC)c(CN4CC(C(=O)O)C4)cc3Cl)c2Cl)ccc1CN1CC(C)(O)C1 [B-100] |  |  | 103 |
| CCOC(=O)C1CN(Cc2cc(Cl)c(O[C@H]3CCc4c(-c5cccc(-c6ccc(CNC[C@@H]7CCC(=O)N7)c(OC)n6)c5Cl)cccc43)nc2OC)C1 [B-105] |  |  | 783 |
| COC(=O)[C@@H]1CCN(Cc2cc(Cl)c(O[C@H]3CCc4c(-c5cccc(-c6ccc(CNC[C@@H]7CCC(=O)N7)c(OC)n6)c5Cl)cccc43)nc2OC)C1 [B-108] |  |  | 696 |
| COc1nc(-c2cccc(-c3cccc4c3CC[C@@H]4Oc3nc(OC)c(CN4CCC[C@@H](C(=O)NS(C)(=O)=O)C4)cc3Cl)c2Cl)ccc1CNC[C@@H]1CCC(=O)N1 [B-109] |  |  | 40.9 |
| COc1nc(-c2cccc(-c3cccc4c3CC[C@@H]4Oc3nc(OC)c(CN4CC(C(=O)NS(=O)(=O)C(F)F)C4)cc3Cl)c2Cl)ccc1CNC[C@@H]1CCC(=O)N1 [B-110] |  |  | 97.1 |
| COc1nc(-c2cccc(-c3cccc4c3CC[C@@H]4Oc3nc(OC)c(CN4CC[C@@H](C(=O)NS(=O)(=O)C(F)F)C4)cc3Cl)c2Cl)ccc1CNC[C@@H]1CCC(=O)N1 [B-111] |  |  | 139 |
| CCS(=O)(=O)NC(=O)[C@@H]1CCN(Cc2cc(Cl)c(O[C@H]3CCc4c(-c5cccc(-c6ccc(CNC[C@@H]7CCC(=O)N7)c(OC)n6)c5Cl)cccc43)nc2OC)C1 [B-112] |  |  | 170 |
| COc1nc(-c2cccc(-c3cccc4c3CC[C@@H]4Oc3nc(OC)c(CN4CC[C@@H](C(=O)NS(C)(=O)=O)C4)cc3Cl)c2Cl)ccc1CNC[C@@H]1CCC(=O)N1 [B-113] |  |  | 29.9 |

Reference: patent US10774071B2, “PD-1/PD-L1 inhibitors” (Gilead Sciences, Inc., priority 2018, dated 2020)
